For 22 molecules, IC50 and Ratio IC50 results are on record in ChEMBL document CHEMBL3259794, “Towards the discovery of drug-like epigallocatechin gallate analogs as Hsp90 inhibitors” (Bioorg Med Chem Lett, 2014).

T1 sequence (P08238 whole entry): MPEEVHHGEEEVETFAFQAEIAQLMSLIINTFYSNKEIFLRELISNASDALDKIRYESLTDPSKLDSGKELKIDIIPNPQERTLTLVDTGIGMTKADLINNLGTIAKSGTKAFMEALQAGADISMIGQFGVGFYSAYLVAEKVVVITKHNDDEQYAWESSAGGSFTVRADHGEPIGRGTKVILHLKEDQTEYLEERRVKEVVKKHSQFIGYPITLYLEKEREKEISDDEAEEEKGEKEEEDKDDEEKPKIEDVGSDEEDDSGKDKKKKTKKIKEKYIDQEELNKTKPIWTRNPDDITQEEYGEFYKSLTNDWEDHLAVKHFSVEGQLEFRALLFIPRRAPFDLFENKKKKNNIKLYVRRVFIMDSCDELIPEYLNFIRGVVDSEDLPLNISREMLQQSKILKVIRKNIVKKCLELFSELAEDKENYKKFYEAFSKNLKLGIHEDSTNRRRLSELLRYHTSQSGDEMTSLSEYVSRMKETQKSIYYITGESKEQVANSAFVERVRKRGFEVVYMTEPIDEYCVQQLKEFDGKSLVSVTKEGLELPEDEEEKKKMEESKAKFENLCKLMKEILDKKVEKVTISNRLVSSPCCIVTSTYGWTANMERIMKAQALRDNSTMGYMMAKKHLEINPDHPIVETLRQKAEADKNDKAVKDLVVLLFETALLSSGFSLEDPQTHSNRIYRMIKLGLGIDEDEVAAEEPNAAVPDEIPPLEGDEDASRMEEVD

One assay concerns the target T1, Heat shock protein HSP 90-beta (Homo sapiens, UniProt P08238). The experiment in a line: Inhibition of HSP90 (unknown origin) by luciferase refolding assay.
`O=C(O[C@H]1Cc2c(O)cc(O)cc2O[C@@H]1c1ccc(O)c(O)c1)[C@H]1CC[C@@H](O)CC1`: the IC50 (in general, the concentration that gives 50% inhibition) stood at 280 µM.

As for `O=C(O[C@@H]1Cc2c(O)cc(O)cc2O[C@@H]1c1ccc(O)c(O)c1)[C@H]1CC[C@@H](F)CC1`, the concentration for half-maximal inhibition (IC50) worked out at 65 µM.

As to `O=S(=O)(N[C@@H]1Cc2c(O)cc(O)cc2O[C@@H]1c1cc(O)c(O)c(O)c1)c1ccccc1`, the midpoint of inhibition, the IC50, lay at 44 µM.

The molecule `O=C(O[C@H]1Cc2c(O)cc(O)cc2O[C@@H]1c1ccc(O)c(O)c1)c1ccccc1` displayed an IC50 of 110 µM.

`O=C(O[C@@H]1Cc2c(O)cc(O)cc2O[C@@H]1c1ccccc1)c1ccccc1` (racemic) gave an IC50 of 63 µM.

Consider `O=C(O[C@@H]1Cc2c(O)cc(O)cc2O[C@@H]1c1ccc(O)c(O)c1)[C@H]1CC[C@H](F)CC1`, for which inhibition was half-maximal at 69 µM (IC50).

For `O=C(O[C@H]1Cc2c(O)cc(O)cc2O[C@@H]1c1ccc(O)c(O)c1)C1CCCCC1`, the concentration for half-maximal inhibition (IC50) stood at 98 µM.

Molecule `O=C(O[C@@H]1Cc2c(O)cc(O)cc2O[C@@H]1c1cc(O)c(O)c(O)c1)c1ccncc1` registered an IC50 of 64 µM.

`O=C(O[C@@H]1Cc2c(O)cc(O)cc2O[C@@H]1c1cc(O)c(O)c(O)c1)c1ccc(F)c(F)c1` displayed a half-inhibitory concentration (IC50) of 58 µM.

`O=C(O[C@@H]1Cc2c(O)cc(O)cc2O[C@@H]1c1cc(O)c(O)c(O)c1)c1ccccc1` gave an IC50 of 24 µM.

Molecule `O=C(O[C@@H]1Cc2c(O)cc(O)cc2O[C@@H]1c1ccc(O)c(O)c1)C1CC1` returned an IC50 of 410 µM.

In turn, `O=C(O[C@@H]1Cc2ccccc2O[C@@H]1c1ccccc1)c1cc(O)c(O)c(O)c1` (racemic) showed an IC50 of 35 µM.

With `O=C(O[C@@H]1Cc2c(O)cc(O)cc2O[C@@H]1c1cc(O)c(O)c(O)c1)c1cc(O)c(O)c(O)c1` [EPIGALOCATECHIN GALLATE], the IC50 turned out to be 155 µM.

For the molecule `O=C(O[C@@H]1Cc2c(O)cc(O)cc2O[C@@H]1c1ccc(O)c(O)c1)[C@H]1CC[C@H](O)CC1`, the IC50 was 440 µM.

Turning to `O=C(O[C@@H]1Cc2c(O)cc(O)cc2O[C@@H]1c1cc(O)c(O)c(O)c1)c1ccc(F)cc1`, the half-inhibitory concentration (IC50) was 41 µM.

Turning to `O=C(O[C@@H]1Cc2c(O)cc(O)cc2O[C@@H]1c1ccc(O)c(O)c1)C1CCCCC1`, inhibition was half-maximal at 81 µM (IC50).

`O=C(O[C@@H]1Cc2c(O)cc(O)cc2O[C@@H]1c1cc(O)c(O)c(O)c1)C1CCCCC1` had an IC50 of 30 µM.

For `O=C(O[C@H]1Cc2c(O)cc(O)cc2O[C@@H]1c1ccccc1)c1ccccc1` (racemic), 120 µM corresponded to half-maximal inhibition (IC50).

In turn, `O=C(O[C@@H]1Cc2c(O)cc(O)cc2O[C@@H]1c1ccc(O)c(O)c1)[C@H]1CC[C@@H](O)CC1` registered an IC50 of 310 µM.

With `O=C(O[C@@H]1Cc2c(O)cc(O)cc2O[C@H]1c1cc(O)c(O)c(O)c1)c1cc(O)c(O)c(O)c1` [GALLOCATECHIN GALLATE], 34 µM corresponded to half-maximal inhibition (IC50).

As for `O=C(N[C@@H]1Cc2c(O)cc(O)cc2O[C@@H]1c1cc(O)c(O)c(O)c1)c1ccccc1`, the 50% inhibitory concentration (IC50) came out at 75 µM.

On to `O=C(O[C@H]1Cc2c(O)cc(O)cc2O[C@@H]1c1ccccc1)c1cc(O)c(O)c(O)c1` (racemic), for which it took 150 µM to reach half-maximal inhibition (IC50).

A further assay addresses T1, Heat shock protein HSP 90-beta. The experiment in a line: Ratio of EGCG IC50 to compound IC50 for HSP90 (unknown origin).
As to `O=S(=O)(N[C@@H]1Cc2c(O)cc(O)cc2O[C@@H]1c1cc(O)c(O)c(O)c1)c1ccccc1`, the Ratio IC50 turned out to be 3.
